{
  "source": "patent US20080227813A1",
  "about": "“Pharmaceutical compositions and methods for treating diseases associated with neurodegeneration” (priority 2006, published 2008)",
  "key": {"CRL:NMRI BR mice [1]": {"tested_on": "CRL:NMRI BR mice", "test": "Acute oral toxicity in mice", "format": "in vivo", "conditions": "mouse", "procedure": "All animal toxicology studies were performed at Toxicological Research Centre (Veszprém, Hungary) using protocols compliant with OECD guidelines and Principles of Good Laboratory Practice. Following is a summary of the studies conducted.\nAcute oral toxicity studies were performed in rats (CRL(WI:)BR) and in mice (CRL: NMRI BR). A control and five dose groups were involved in the rat study at dose levels of 2000 mg/kg, 2600 mg/kg, 3400 mg/kg, 4400 mg/kg and 5700 mg/kg (equal to 1241 mg/kg, 1613 mg/kg, […], 2729 mg/kg and 3535 mg/kg free base, n=5 animals/sex/group)."}, "CRL:(WI)BR rats [2]": {"tested_on": "CRL:(WI)BR rats", "test": "Acute intraperitoneal toxicity in rats", "format": "in vivo", "conditions": "rat", "procedure": "(§1) Acute intraperitoneal toxicity studies were performed in rats (CRL(WI:)BR) and in mice (CRL: NMRI BR).\nA control and five dose groups were involved in the rat study at dose levels of 500 mg/kg, 650 mg/kg, 800 mg/kg, 950 mg/kg and 1200 mg/kg (equal to 310 mg/kg, 403 mg/kg, 496 mg/kg, 589 mg/kg and 744 mg/kg free base, n=5 animals/sex/group)."}, "CRL:NMRI BR mice [3]": {"tested_on": "CRL:NMRI BR mice", "test": "Acute intraperitoneal toxicity in mice", "format": "in vivo", "conditions": "mouse", "procedure": "as §1\nIn the case of the mouse study a control and five dose groups were involved at dose levels of 850 mg/kg, 1100 mg/kg, 1500 mg/kg, 1900 mg/kg and 2600 mg/kg (equal to 527 mg/kg, 682 mg/kg, 930 mg/kg, 1178 mg/kg and 1613 mg/kg free base, n=5 animals/sex/group)."}, "CRL:(WI)BR rats [4]": {"tested_on": "CRL:(WI)BR rats", "test": "Acute intravenous toxicity in rats", "format": "in vivo", "conditions": "rat", "procedure": "A control and five dose groups were involved in the rat study at dose levels of 150 mg/kg, 200 mg/kg, 250 mg/kg, 300 mg/kg and 350 mg/kg (equal to 93 mg/kg, 124 mg/kg, 155 mg/kg, 186 mg/kg and 217 mg/kg free base, n=5 animals/sex/group)."}, "rats": {"tested_on": "rats", "test": "180-day repeated dose oral toxicity study in rats", "procedure": "A six-month repeated dose oral toxicity study of Compound I was performed in rats involving a control (physiologic saline, n=32/sex) and dose groups of 200 mg/kg/day, 400 mg/kg/day and 900 mg/kg/day (equal to 124 mg/kg, 248 mg/kg and 558 mg/kg free base, n=20/sex, 20/sex and 32/sex, respectively). The test item was dissolved in distilled water. Treatment was carried out by a stomach tube daily. The application volume was adjusted weekly according to the animal's body weight changes.\nClinical observations were made once daily. Body weight and food consumption were measured and evaluated weekly. Urine collection, blood sampling for hematological, clinical chemistry evaluation and gross necropsy were conducted at the end of the treatment period. Full histopathologic examination was performed on the preserved organs and tissues of the vehicle control and high dose groups. In addition, the liver, kidneys, testes, epididymis and organs showing macroscopic alterations were examined microscopically in the low and medium doses.\nCompound I content (pre-dose concentration) was determined in serum on days 1, 49, 111 and 173. The serum samples were analyzed by liquid/liquid extraction, and ion-pair HPLC. Twelve animals per sex of the controls and high dose groups were kept alive for a 28-day post-treatment recovery period. They were processed in the same way as animals at the termination of treatment."}, "[5]": {"tested_on": "healthy young male subjects", "conditions": "human, single oral doses 50-800 mg", "procedure": "The study was conducted in 12 volunteers, in accordance with the Helsinski Declaration, European Good Clinical Practices and Huriet law. The volunteers were divided into two groups (n=6 in each group).\nThe dose was administered orally, under medical supervision, after a 10 h abstinence from food. No concomitant medication was allowed within the period of time from the screening examination to 24 h after the last administration."}, "patients with ALS": {"tested_on": "patients with ALS", "conditions": "high dose", "procedure": "A clinical trial was conducted to assess the safety and tolerability of Compound I, at three dosages (75, 150, and 300 mg/day) as compared with placebo over 12 weeks of treatment in 80 patients with ALS. It was also conducted to determine the pharmacokinetic characterization of Compound I in serum, as well as cerebrospinal fluid (CSF) penetration, in a subset of the 80 patients participating in the study. This information was correlated with safety measures.\nMethodology: This study was a multicenter, double-blind, placebo-controlled study of outpatients with ALS. Eighty subjects at 8-10 centers were enrolled. Subjects received placebo, 25 mg tid, 50 mg tid or 100 mg tid Compound I daily. All 80 subjects received treatment to determine safety and tolerability after 12 weeks of daily treatment. Follow-up visits occurred at 2, 4, 6, 8, 10, 12, and 16 weeks. A subset of participants were admitted to the General Clinical Research Center (GCRC), clinical research center or other department for serum pharmacokinetic studies at Baseline and Week 4, with additional trough serum sampling at Weeks 2, 8, and 12. Cerebrospinal fluid (CSF) penetration was only be evaluated at Week 4."}, "[6]": {"tested_on": "healthy young male subjects", "test": "Multiple dose safety study in male healthy volunteers", "conditions": "human, 50 or 100 mg tid, 10 days", "experimental": "The study was designed as a randomized, double-blind and single-center study, without therapeutic benefit for the subjects.\nThe study was performed in 18 healthy subjects divided into 2 groups of 9 subjects (groups A and B). Subjects of group A received 50 mg Compound I as a single dose on the morning of day 1; then 50 mg Compound I tid on days 2 to 9; and a single 50 mg dose on the morning of day 10."}},
  "note": "Read-outs that look alike come from different tables or passages of the source.",
  "data": [
    {"smiles": "[O-][n+]1cccc(/C(Cl)=N/OC[C@H](O)CN2CCCCC2)c1", "note": "[Compound I, N-[2-hydroxy-3-(1-piperidinyl)-propoxy]-pyridine-1-oxide-3-carboximidoyl chloride]", "values": [
      {"measurement": "Oral LD50 value", "setting": "CRL:NMRI BR mice [1]; female, by base", "value": ">3101 - by base mg/kg"},
      {"measurement": "Oral LD50 value", "setting": "CRL:NMRI BR mice [1]; female, by citrate", "value": ">5000 - by citrate mg/kg"},
      {"measurement": "Oral LD50 value", "setting": "CRL:NMRI BR mice [1]; male, by base", "value": ">3101 - by base mg/kg"},
      {"measurement": "Oral LD50 value", "setting": "CRL:NMRI BR mice [1]; male, by citrate", "value": ">5000 - by citrate mg/kg"},
      {"measurement": "Intraperitoneal LD50 value", "setting": "CRL:(WI)BR rats [2]; female, by base", "value": "770 - by base mg/kg"},
      {"measurement": "Intraperitoneal LD50 value", "setting": "CRL:(WI)BR rats [2]; female, by citrate", "value": "1241 - by citrate mg/kg"},
      {"measurement": "Intraperitoneal LD50 value", "setting": "CRL:(WI)BR rats [2]; male, by base", "value": "698 (577-3871) by base mg/kg"},
      {"measurement": "Intraperitoneal LD50 value", "setting": "CRL:(WI)BR rats [2]; male, by citrate", "value": "1125 (931-6241) by citrate mg/kg"},
      {"measurement": "Intraperitoneal LD50 value", "setting": "CRL:NMRI BR mice [3]; female, by base", "value": "738 - by base mg/kg"},
      {"measurement": "Intraperitoneal LD50 value", "setting": "CRL:NMRI BR mice [3]; female, by citrate", "value": "1189 - by citrate mg/kg"},
      {"measurement": "Intraperitoneal LD50 value", "setting": "CRL:NMRI BR mice [3]; male, by base", "value": "839 (674-1023) by base mg/kg"},
      {"measurement": "Intravenous LD50 value", "setting": "CRL:(WI)BR rats [4]; female, by base", "value": "215 (190-764) by base mg/kg"},
      {"measurement": "Intravenous LD50 value", "setting": "CRL:(WI)BR rats [4]; female, by citrate", "value": "346 (306-1232) by citrate mg/kg"},
      {"measurement": "Intravenous LD50 value", "setting": "CRL:(WI)BR rats [4]; male, by base", "value": "197 (168-301) by base mg/kg"},
      {"measurement": "Intravenous LD50 value", "setting": "CRL:(WI)BR rats [4]; male, by citrate", "value": "317 (271-485) by citrate mg/kg"},
      {"measurement": "mortality", "setting": "rats; rat, 200, 400, 900 mg/kg/day oral, six months", "value": "No test item related mortality occurred"},
      {"measurement": "NOEL", "setting": "rats; rat, both sexes, six-month oral", "value": 200, "unit": "mg/kg/day"},
      {"measurement": "accumulation in serum", "setting": "rats; rat, in vivo, po", "value": "No accumulation"},
      {"measurement": "changes in safety parameters (laboratory parameters, vital signs, ECGs)", "setting": "[5]", "value": "No changes in any safety parameters"},
      {"measurement": "serious adverse events or deaths", "setting": "[5]", "value": "no serious adverse events or deaths"},
      {"measurement": "effect on ALSFRS-R", "setting": "patients with ALS; patients also treated with riluzole, not statistically significant", "value": "may improve ALSFRS-R"},
      {"measurement": "effect on average ALSFRS-R score", "setting": "patients with ALS; patients not treated with riluzole", "value": "no effect"},
      {"measurement": "amount of metabolite No. 1", "setting": "human hepatocytes", "value": "0.64 % of the total radioactivity"},
      {"measurement": "amount of metabolite No. 2", "setting": "human hepatocytes", "value": "0.60 % of the total radioactivity"},
      {"measurement": "amount of metabolite No. 3", "setting": "human hepatocytes", "value": "0.80 % of the total radioactivity"},
      {"measurement": "amount of metabolite No. 4", "setting": "human hepatocytes", "value": "0.62 % of the total radioactivity"},
      {"measurement": "amount of metabolite No. 5 (bimoclomol)", "setting": "human hepatocytes", "value": "2.59 % of the total radioactivity"},
      {"measurement": "clearance", "setting": "human hepatocytes; human, hepatocytes", "value": 0.040, "unit": "mL/h"},
      {"measurement": "t1/2", "setting": "human hepatocytes; human, hepatocytes", "value": 17.2, "unit": "h"},
      {"measurement": "serious adverse events or deaths", "setting": "[6]", "value": "no serious adverse events or deaths"}
    ]}
  ]
}
